The compounds below were run on HT-29 cells (assay: In vitro assay for protection of HT-29 cells from necroptosis (TNFα/Smac mimetic/Z-VAD-FMK induction, CCK8 readout)). Conditions: TNFα/Smac mimetic/Z-VAD-FMK for 24 h; inhibition of necroptosis; read-out: HT-29 (EC50).
Assay type: cell-based

Question: With `CC(C(=O)Nc1nc2cc(-c3ccc4c(c3)c(C(=O)N[C@@H](C)c3ccc(F)cc3)cn4C)ccn2n1)N1CC[C@H](O)C1` (stereo partly drawn) [Compound 1] as the compound, how does the EC50 read?
Answer: 10 to 100 nM

Question: How did the EC50 turn out when `C[C@H](NC(=O)c1cn(C)c2ccc(-c3ccn4nc(NC(=O)CN5C[C@H](O)CC5=O)nc4c3)cc12)c1ccc(F)cc1` [Compound 4] was run?
Answer: 10 to 100 nM

Question: `C[C@H](NC(=O)c1cn(C)c2ccc(-c3ccn4nc(NC(=O)CN5CCC(O)(O)CC5)nc4c3)cc12)c1ccc(F)cc1` [Compound 5] was tested. Which EC50 did it give?
Answer: < 1 nM

Question: With `C[C@H](NC(=O)c1cn(C)c2ccc(-c3ccn4nc(NC(=O)CN5CCC[C@H](O)C5)nc4c3)cc12)c1ccc(F)cc1` [Compound 7] as the compound, how does the EC50 read?
Answer: < 1 nM

Question: For `CCOC(=O)C(=O)Nc1nc2cc(-c3ccc4c(c3)c(C(=O)N[C@@H](C)c3ccc(F)cc3)cn4C)ccn2n1` [Compound 10], which EC50 is on record?
Answer: 1 to 10 nM

Question: Which EC50 does the source give for `C[C@H](NC(=O)c1cn(C)c2ccc(-c3ccn4nc(NC(=O)C(N)=O)nc4c3)cc12)c1ccc(F)cc1` [Compound 11] here?
Answer: 1 to 10 nM

Question: `C[C@H](NC(=O)c1cn(C)c2ccc(-c3ccn4nc(NC(=O)CN5CC[C@@H](O)C5)nc4c3)cc12)c1ccc(F)cc1` [Compound 12] was tested. Which EC50 did it give?
Answer: < 1 nM

Question: Which EC50 does the source give for `C[C@H](NC(=O)c1cn(C)c2ccc(-c3ccn4nc(NC(=O)CC5CCCCC5)nc4c3)cc12)c1ccc(F)cc1` [Compound 13] here?
Answer: < 1 nM

Question: Which EC50 does the source give for `C[C@H](NC(=O)c1cn(C)c2ccc(-c3ccn4nc(NC(=O)CN5CCOCC5=O)nc4c3)cc12)c1ccc(F)cc1` [Compound 16] here?
Answer: 10 to 100 nM

Question: `CCOC(=O)Nc1nc2cc(-c3ccc4c(c3)c(C(=O)N[C@@H](C)c3ccc(F)cc3)cn4C)ccn2n1` [Compound 17] was tested. Which EC50 did it give?
Answer: < 1 nM

Question: For `COC1CCN(CC(=O)Nc2nc3cc(-c4ccc5c(c4)c(C(=O)N[C@@H](C)c4ccc(F)cc4)cn5C)ccn3n2)C1` (stereo partly drawn) [Compound 19], which EC50 is on record?
Answer: < 1 nM

Question: With `C[C@H](NC(=O)c1cn(C)c2ccc(-c3ccn4nc(NC(=O)CN5CC[C@@H](F)C5)nc4c3)cc12)c1ccc(F)cc1` [Compound 20] as the compound, how does the EC50 read?
Answer: < 1 nM

Question: How did the EC50 turn out when `C[C@H](NC(=O)c1cn(C)c2ccc(-c3ccn4nc(NC(=O)CN5CC[C@H](F)C5)nc4c3)cc12)c1ccc(F)cc1` [Compound 21] was run?
Answer: < 1 nM

Question: Which EC50 does the source give for `C[C@H](NC(=O)c1cn(C)c2ccc(-c3ccn4nc(NC(=O)CN5CCC(C#N)CC5)nc4c3)cc12)c1ccc(F)cc1` [Compound 23] here?
Answer: < 1 nM

Question: `COC1CCN(CC(=O)Nc2nc3cc(-c4ccc5c(c4)c(C(=O)N[C@@H](C)c4ccc(F)cc4)cn5C)ccn3n2)CC1` [Compound 24] was tested. Which EC50 did it give?
Answer: < 1 nM

Question: `COCCOCCOCC(=O)Nc1nc2cc(-c3ccc4c(c3)c(C(=O)N[C@@H](C)c3ccc(F)cc3)cn4C)ccn2n1` [Compound 25] was tested. Which EC50 did it give?
Answer: < 1 nM

Question: With `COCCOCCOCCOCC(=O)Nc1nc2cc(-c3ccc4c(c3)c(C(=O)N[C@@H](C)c3ccc(F)cc3)cn4C)ccn2n1` [Compound 26] as the compound, how does the EC50 read?
Answer: < 1 nM

Question: With `C[C@H](NC(=O)c1cn(C)c2ccc(-c3ccn4nc(NC(=O)CN5CCS(=O)(=O)CC5)nc4c3)cc12)c1ccc(F)cc1` [Compound 28] as the compound, how does the EC50 read?
Answer: 1 to 10 nM

Question: How did the EC50 turn out when `C[C@H](NC(=O)c1cn(C)c2ccc(-c3ccn4nc(NC(=O)CN5CCCOCC5)nc4c3)cc12)c1ccc(F)cc1` [Compound 30] was run?
Answer: < 1 nM

Question: `C[C@H](NC(=O)c1cn(C)c2ccc(-c3ccn4nc(NC(=O)C5(C(=O)O)CC5)nc4c3)cc12)c1ccc(F)cc1` [Compound 31] was tested. Which EC50 did it give?
Answer: 10 to 100 nM

Question: How did the EC50 turn out when `C[C@H](NC(=O)c1cn(C)c2ccc(-c3ccn4nc(NC(=O)CN5CCOCC5C(=O)O)nc4c3)cc12)c1ccc(F)cc1` (stereo partly drawn) [Compound 33] was run?
Answer: 1000 to 10000 nM

Question: `C[C@H](NC(=O)c1cn(C)c2ccc(-c3ccn4nc(NC(=O)CN5CC(C#N)C5)nc4c3)cc12)c1ccc(F)cc1` [Compound 34] was tested. Which EC50 did it give?
Answer: < 1 nM

Question: `C[C@H](NC(=O)c1cn(C)c2ccc(-c3ccn4nc(NC(=O)CN5CCOC[C@@H]5CO)nc4c3)cc12)c1ccc(F)cc1` [Compound 35] was tested. Which EC50 did it give?
Answer: < 1 nM

Question: How did the EC50 turn out when `CCN(CC)CC(=O)Nc1nc2cc(-c3ccc4c(c3)c(C(=O)N[C@@H](C)c3ccc(F)cc3)cn4C)ccn2n1` [Compound 36] was run?
Answer: < 1 nM

Question: With `C[C@H](NC(=O)c1cn(C)c2ccc(-c3ccn4nc(NC(=O)CN5CCC[C@H]5C(=O)O)nc4c3)cc12)c1ccc(F)cc1` [Compound 37] as the compound, how does the EC50 read?
Answer: 1 to 10 nM

Question: How did the EC50 turn out when `C[C@H](NC(=O)c1cn(C)c2ccc(-c3ccn4nc(NC(=O)CN5CC[C@H](O)C5)nc4c3)cc12)c1ccc(F)cc1` [Compound 41] was run?
Answer: < 1 nM

Question: `C[C@H](NC(=O)c1cn(C)c2ccc(-c3ccn4nc(NC(=O)CN5CCCC(CO)C5)nc4c3)cc12)c1ccc(F)cc1` (stereo partly drawn) [Compound 44] was tested. Which EC50 did it give?
Answer: 1 to 10 nM

Question: `CC1CN(CC(=O)Nc2nc3cc(-c4ccc5c(c4)c(C(=O)N[C@@H](C)c4ccc(F)cc4)cn5C)ccn3n2)CCO1` (stereo partly drawn) [Compound 45] was tested. Which EC50 did it give?
Answer: < 1 nM

Question: `C[C@H](NC(=O)c1cn(C)c2ccc(-c3ccn4nc(NC(=O)CN5CCC(F)(F)CC5)nc4c3)cc12)c1ccc(F)cc1` [Compound 47] was tested. Which EC50 did it give?
Answer: < 1 nM

Question: How did the EC50 turn out when `C[C@H](NC(=O)c1cn(C)c2ccc(-c3ccn4nc(NC(=O)Cn5ccnc5)nc4c3)cc12)c1ccc(F)cc1` [Compound 48] was run?
Answer: 10 to 100 nM

Question: With `C[C@H](NC(=O)c1cn(C)c2ccc(-c3ccn4nc(NC(=O)CN5CCC[C@@H](O)C5)nc4c3)cc12)c1ccc(F)cc1` [Compound 49] as the compound, how does the EC50 read?
Answer: 1 to 10 nM

Question: `C[C@H](NC(=O)c1cn(C)c2ccc(-c3ccn4nc(NC(=O)CN5CCN(C(=O)C6CC6)CC5)nc4c3)cc12)c1ccc(F)cc1` [Compound 50] was tested. Which EC50 did it give?
Answer: < 1 nM

Question: Which EC50 does the source give for `C[C@H](NC(=O)c1cn(C)c2ccc(-c3ccn4nc(NC(=O)Cn5ccnn5)nc4c3)cc12)c1ccc(F)cc1` [Compound 52] here?
Answer: < 1 nM

Question: Which EC50 does the source give for `CC(=O)N1CCN(CC(=O)Nc2nc3cc(-c4ccc5c(c4)c(C(=O)N[C@@H](C)c4ccc(F)cc4)cn5C)ccn3n2)CC1` [Compound 53] here?
Answer: < 1 nM

Question: How did the EC50 turn out when `C[C@H](NC(=O)c1cn(C)c2ccc(-c3ccn4nc(NC(=O)Cn5cncn5)nc4c3)cc12)c1ccc(F)cc1` [Compound 57] was run?
Answer: 10 to 100 nM

Question: How did the EC50 turn out when `C[C@H](NC(=O)c1cn(C)c2ccc(-c3ccn4nc(NC(=O)Cn5cccn5)nc4c3)cc12)c1ccc(F)cc1` [Compound 58] was run?
Answer: < 1 nM

Question: With `C[C@H](NC(=O)c1cn(C)c2ccc(-c3ccn4nc(NC(=O)CN5CC[C@H](CO)C5)nc4c3)cc12)c1ccc(F)cc1` [Compound 61] as the compound, how does the EC50 read?
Answer: 1 to 10 nM

Question: With `C[C@H](NC(=O)c1cn(C)c2ccc(-c3ccn4nc(NC(=O)CN5CC[C@@H](CO)C5)nc4c3)cc12)c1ccc(F)cc1` [Compound 62] as the compound, how does the EC50 read?
Answer: < 1 nM

Question: With `C[C@H](NC(=O)c1cn(C)c2ccc(-c3ccn4nc(NC(=O)CC(=O)O)nc4c3)cc12)c1ccc(F)cc1` [Compound 63] as the compound, how does the EC50 read?
Answer: 1000 to 10000 nM

Question: `C[C@H](NC(=O)c1cn(C)c2ccc(-c3ccn4nc(NC(=O)CN5CCN(C(=O)OC(C)(C)C)C[C@H]5C)nc4c3)cc12)c1ccc(F)cc1` [Compound 64] was tested. Which EC50 did it give?
Answer: < 1 nM

Question: With `C[C@H](NC(=O)c1cn(C)c2ccc(-c3ccn4nc(NC(=O)CNCCOCCO)nc4c3)cc12)c1ccc(F)cc1` [Compound 65] as the compound, how does the EC50 read?
Answer: < 1 nM

Question: `C[C@H](NC(=O)c1cn(C)c2ccc(-c3ccn4nc(NC(=O)CNCC5CC5)nc4c3)cc12)c1ccc(F)cc1` [Compound 66] was tested. Which EC50 did it give?
Answer: < 1 nM

Question: Which EC50 does the source give for `CC(C)NCC(=O)Nc1nc2cc(-c3ccc4c(c3)c(C(=O)N[C@@H](C)c3ccc(F)cc3)cn4C)ccn2n1` [Compound 67] here?
Answer: < 1 nM

Question: For `C[C@H](NC(=O)c1cn(C)c2ccc(-c3ccn4nc(NC(=O)CN5CCN(CCO)CC5)nc4c3)cc12)c1ccc(F)cc1` [Compound 70], which EC50 is on record?
Answer: < 1 nM

Question: With `C[C@H](NC(=O)c1cn(C)c2ccc(-c3ccn4nc(NC(=O)CN5CCOC[C@H]5C)nc4c3)cc12)c1ccc(F)cc1` [Compound 72] as the compound, how does the EC50 read?
Answer: < 1 nM

Reference: patent EP4782448A1, “SUBSTITUTED PYRIDOTRIAZOLE COMPOUND, AND PREPARATION METHOD THEREFOR AND USE THEREOF” (Origiant Pharmaceutical Co., Ltd., priority 2023, dated 2025)
